Assay results taken from patent US12012394B2, “Alpha-synuclein ligands” (Washington University, priority 2018, dated 2024).
Several values for one entry are separate records, joined by “and”; a condition that tells them apart may be missing. Identical values can stand only once.

Columns and labels:
[1] = target: α-synuclein fibrils (Homo sapiens (Human), UniProt P37840); experiment: Thioflavin T fluorescence competitive assay; details: for Ki: read-out: Thioflavin T assay Ki, competition with ThT on recombinant α-synuclein fibrils, at least three experiments
[2] = target: T1, PD-seeded fibrils (Homo sapiens (Human), UniProt P37840); experiment: Heterologous competition binding assay with [18F]TZ61-44 as radioligand; details: radioligand [18F]TZ61-44, 25 nM PD-seeded fibrils; for Ki: Cheng-Prusoff from EC50
Experimental: The equilibrium inhibitor constant (Ki) of a series of compounds was measured using heterologous radioactive binding assays with [^18F]TZ61-44, […], or [^125I]TZ61-84 as the screening radioligands. EC50 values for each compound were determined by fitting the data to the equation Y=Bottom+(Top−Bottom)/(1+(X−Log EC50)^−Hillcoefficient) using nonlinear regression by Kaleidagraph software, where Top and Bottom are the Y values for the top and bottom plateaus of the binding curve. The Ki values were derived from the EC50 values using the Cheng-Prusoff equation: Ki=EC50/(1+[radioligand]/Kd). FIGS. 5A-5E show the inhibition curves for TG-1-90B, TZ55-101, TZ61-84, TZ55-107, and TZ55-81 using [^18F]TZ61-44 as the radioligand. FIG. 11B-C show the inhibition curves for two separate experiments on PD fibrils for TZ55-101 using […] as the radioligand. FIGS. 12A-12F show the inhibition curves for TZ66-3, TZ64-015, TZ64-016, TZ64-018, TZ64-019, and TZ64-020 using [^18F]TZ61-44 as the radioligand. FIGS. 13A-13D show the inhibition curves for TZ66-9, TZ66-8, and TZ55-107 using [^18F]TZ61-44 as the radioligand.

[3] = target: Fibrils 4174 (Homo sapiens, UniProt P37840); experiment: 3H radioligand competition, Fibrils 4174; assay type: binding; details: hot concentration 2 nM
Experimental: (§1) A series of compounds were synthesized and the Ki (nM) in the presence of Fibrils 4174, PD-seeded fibrils (using Tg-1-90B as the radioligand), AD Tissue 6843 and/or AD Tissue 2846 was determined. In each experiment, the “hot” concentration was 2 nM.

[4] = target: T1, PD-seeded fibrils; experiment: Radioligand competition, PD-seeded fibrils (Tg-1-90B as radioligand); assay type: binding; details: PD-seeded fibrils (Tg-1-90B radioligand); hot concentration 2 nM
Experimental: as §1

[5] = target: AD Tissue 6843; experiment: 3H radioligand competition, AD Tissue 6843; assay type: binding; details: hot concentration 2 nM
Experimental: as §1

[6] = target: AD Tissue 2846; experiment: 3H radioligand competition, AD Tissue 2846; assay type: binding; details: hot concentration 2 nM
Experimental: as §1

[7] = target: Banner PD-seeded α-synuclein fibrils (Homo sapiens (Human), UniProt P37840); experiment: Homologous competition radioligand binding assay, PD-seeded fibrils
Experimental: The equilibrium dissociation constant (Kd) for a series of compounds was determined using direct radioactive competitive binding assays (homologous or heterologous) with either recombinant α-synuclein fibrils or brain tissue homogenates from AD cases.
Recombinant protein was produced in E. coli using protocols based on previously described methods for α-synuclein [Giasson, B. I., et al., “Mutant and wild type human alpha-synucleins assemble into elongated filaments with distinct morphologies in vitro,” 1999, J Biol. Chem., 274:7619-7622; Huang, C., et al., “A new method for purification of recombinant human alpha-synuclein in Escherichia coli,” 2005, Protein Expr Purif, 42:173-177; Yu, L., et al, “Synthesis and in vitro evaluation of á-synuclein ligands,” 2012, Bioorg. Med. Chem., 20:4625-4634] and tau [Li, W., et al., “Characterization of two VQIXXK motifs for tau fibrillization in vitro,” 2006, Biochemistry, 45:15692-15701]. BL21(DE3)RIL E. coli were transformed with a pRK172 bacterial expression plasmid containing the human α-synuclein coding sequence. […]. Overnight cultures were centrifuged at 3,900×g for 10 min at 25° C. and the bacterial pellets were resuspended by gentle vortexing in 20 ml osmotic shock buffer (30 mM Tris-HCl, 2 mM EDTA, 40% Sucrose, pH 7.2) and then incubated at room temperature for 10 min. The cell suspension was then centrifuged at 8,000×g for 10 min at 25° C. and the pellet was resuspended in 22.5 ml cold H2O before adding 9.4 μl 2 M MgCl2 to each tube. The suspension was incubated on ice for 3 min prior to centrifugation at 20,000×g for 15 min at 4° C. After the supernatant was transferred to a fresh tube, streptomycin was added to a final concentration of 10 mg/ml and centrifuged at 20,000×g for 15 min at 4° C. The supernatant from this step was collected and dithiothreitol (DTT) and Tris-HCl pH 8.0 were added to final concentrations of 1 mM and 20 mM respectively, before boiling for 10 min to precipitate heat-sensitive proteins, which were pelleted at 20,000×g for 15 min at 4° C. The supernatant was collected and filtered through a 0.45 μm surfactant-free cellulose acetate filter (Corning) before loading onto a 1 ml DEAE Sepharose column equilibrated in 20 mM Tris-HCl pH 8.0, 1 mM EDTA, and 1 mM DTT. The DEAE column was washed with 20 mM Tris-HCl pH 8.0, 1 mM EDTA, 1 mM DTT before eluting α-synuclein protein in 20 mM Tris-HCl pH 8.0 buffer with 1 mM EDTA, 1 mM DTT and 0.3 M NaCl. Purified α-synuclein protein was dialyzed overnight in 10 mM Tris-HCl pH 7.6, 50 mM NaCl, 1 mM DTT.
Purified recombinant α-synuclein monomer (2 mg/ml) was incubated in 20 mM Tris-HCl, pH 8.0, 100 mM NaCl for 72 h at 37 C with shaking at 1000 rpm in an Eppendorf Thermomixer. […] The concentration of α-synuclein monomer in the supernatant was determined in a BCA protein assay according to the manufacturer's instructions, using a bovine serum albumin (BSA) standard curve. The measured decrease in α-synuclein monomer concentration was used to determine the concentration of fibrils in the 72 h fibril reaction mixture. […]
These direct binding assays used a fixed concentration of either fibrils or PD/AD tissue and the radioligand (e.g., [^18F]28) and varying concentration ranges of corresponding homologous non-radiolabeled standard reference compound. […] Reactions were incubated at 37° C. for 1 h before quantifying bound radioligand. […]

[8] = MicroPET studies in the brain of nonhuman primate; assay type: in vivo; details: male adult cynomolgus macaca
Experimental: 9.93 mCi of [^18F]TZ61-44 was injected into a male adult cynomolgus macaca (9.25 Kg) 10.57 mCi of [^11C]TZ55-107 was injected into was injected into a male adult cynomolgus macaca (9.40 Kg) A simplified reference tissue model (SRTM) and spatially-constraint linear regression algorithm was used to generate R1 and DVR images (FIGS. 18A and 18B).
FIGS. 19A and 19B graphically depict the uptake of labeled TZ55-107 and TZ61-44 in the animals. [^18F]TZ61-44 had highest cortical uptake (SUV) of ˜3.48 at 4 min and the uptake ratio at 4 min versus 120 min reached ˜4.2 (FIG. 19A); [^11C]TZ55-107 had highest cortical uptake of ˜6.40 at 4 min, and the uptake ratio at 4 min versus 120 min reached ˜6.30 (FIG. 19B).

EC50 [2]	Ki [2]	Compound	Ki [1] [nM]	also measured
73 nM	68 nM	C=CCOCc1cc(-c2ccc3cc(OC)ccc3n2)cs1 [TZ66-8]	–	–
24 nM and 36 nM	22 nM and 34 nM	COc1ccc2nc(Nc3ccnc(OC)c3)ccc2c1 [TZ55-107]	–	binding affinity towards PD / α-synuclein fibrils ([7]; preliminary / initial competitive binding assays): good binding affinity; selectivity ([7]; preliminary binding assays): moderate selectivity; highest cortical uptake (SUV) ([8]; brain cortex, at 4 min): ~6.40 SUV; uptake ratio at 4 min versus 120 min ([8]; brain cortex): ~6.30; blood brain barrier penetration [8]: able to penetrate the blood brain barrier
37 nM	34 nM	COc1ccc2nc(-c3csc(C#N)c3)ccc2c1 [TZ64-020]	–	–
84 nM	78 nM	COCc1cc(-c2ccc3cc(OC)ccc3n2)cs1 [TZ66-9]	–	–
78 nM	73 nM	COc1ccc2nc(-c3csc(C(=O)O)c3)ccc2c1 [TZ66-3]	–	–
46 nM	43 nM	COc1ccc(Nc2ccc3c(F)cccc3n2)cn1 [TZ64-015]	–	–
127 nM	119 nM	COc1ccc2nc(-c3csc(C(C)=O)c3)ccc2c1 [TZ64-018]	–	–
29 nM	27 nM	COc1ccc(Nc2ccc3cc(F)ccc3n2)cn1 [TZ64-013]	–	–
45 nM	42 nM	COc1ccc(Nc2ccc3cccc(F)c3n2)cn1 [TZ64-016]	–	–

Continued, compound first:

Compound	EC50 [2]	Ki [2]	Ki [1] [nM]	also measured
COc1ccc2nc(-c3csc(/C=N/O)c3)ccc2c1 [TZ66-16]	–	–	11	potency in Thioflavin T assay [1]: high potency
CC(C)Oc1ccc2nc(-c3noc(-c4ccn5ccnc5c4)n3)ccc2c1 [Compound 32, 5-(Imidazo[1,2-c]pyridin-7-yl)-3-(6-isopropoxyquinolin-2-yl)-1,2,4-oxadiazole]	–	–	> 1000	–
COC(=O)c1cc(-c2ccc3cc(OC)ccc3n2)cs1 [TZ66-25]	–	–	17	potency in Thioflavin T assay [1]: high potency
COc1ccc(Nc2ccc3cc(I)ccc3n2)cn1 [TZ64-102]	–	–	12	potency in Thioflavin T assay [1]: high potency
COc1ccc2nc(-c3coc(C=O)c3)ccc2c1 [TZ64-019]	28 nM	27 nM	–	–
COc1ccc2cc(-c3noc(-c4ccnc(F)c4)n3)ccc2c1 [TZ46-102]	–	–	–	Ki [3]: 203 nM
COc1ccc(Nc2ccc3cc([N+](=O)[O-])ccc3n2)cn1 [TZ64-55]	–	–	15	potency in Thioflavin T assay [1]: high potency
COc1ccc2nc(-c3noc(-c4ccc5ncccc5c4)n3)ccc2c1 [TZ46-147]	–	–	–	Ki [3]: 96 nM; Ki [4]: 39 nM; Ki [5]: 21 nM; Ki [6]: 30 nM
COc1ccc2nc(-c3coc(C=O)c3)ccc2c1 [TZ64-19]	–	–	10.4	potency in Thioflavin T assay [1]: high potency
COCOc1ccc2nc(-c3noc(-c4ccnc(OC)c4)n3)ccc2c1 [Compound 29, 3-(6-(Methoxymethoxy)quinolin-2-yl)-5-(2-methoxypyridin-4-yl)-1,2,4-oxadiazole]	–	–	> 1000	–
COc1cccc(-c2nc(-c3ccc4cc(OC)ccc4n3)no2)c1 [TZ46-139]	–	–	–	Ki [3]: 222 nM
COc1ccc(Nc2ccc3c([N+](=O)[O-])cccc3n2)cn1 [TZ64-82]	–	–	18	potency in Thioflavin T assay [1]: high potency
FCCOc1ccc2nc(-c3noc(-c4ccn5ccnc5c4)n3)ccc2c1 [Compound 33, 3-(6-(2-Fluoroethoxy)quinolin-2-yl)-5-(imidazo[1,2-c]pyridin-7-yl)-1,2,4-oxadiazole]	–	–	> 1000	–
COc1ccc2nc(-c3noc(-c4ccc(-n5ccnc5)cc4)n3)ccc2c1 [TZ46-155]	–	–	–	Ki [4]: 230 nM
COc1ccc(Nc2ccc3cc(Br)ccc3n2)cn1 [TZ64-105]	–	–	10	potency in Thioflavin T assay [1]: high potency
COc1ccc2nc(-c3noc(-c4cocn4)n3)ccc2c1 [TZ46-120]	–	–	–	Ki [3]: 646 nM
COc1ccc2nc(-c3noc(-c4ccc5c(c4)OCO5)n3)ccc2c1 [TZ46-136]	–	–	–	Ki [3]: 162 nM
COc1ccc2nc(Nc3coc(C=O)c3)ccc2c1 [TZ64-91]	–	–	18	potency in Thioflavin T assay [1]: high potency
COc1cc(-c2nc(-c3ccc4cc(OC(C)C)ccc4n3)no2)ccn1 [Compound 30, 3-(6-Isopropoxyquinolin-2-yl)-5-(2-methoxypyridin-4-yl)-1,2,4-oxadiazole]	–	–	> 1000	–
COc1ccc2nc(-c3noc(-c4ccn5ccnc5c4)n3)ccc2c1 [Compound 31, 5-(Imidazo[1,2-c]pyridin-7-yl)-3-(6-methoxyquinolin-2-yl)-1,2,4-oxadiazole]	–	–	> 1000	–
COc1ccc2nc(-c3noc(-c4cscn4)n3)ccc2c1 [TZ46-117]	–	–	–	Ki [3]: 156 nM
COCOc1ccc2nc(-c3noc(-c4ccn5ccnc5c4)n3)ccc2c1 [Compound 34, 5-(Imidazo[1,2-c]pyridin-7-yl)-3-(6-(methoxymethoxy)-quinolin-2-yl)-1,2,4-oxadiazole]	–	–	> 1000	–
COc1ccc2nc(-c3noc(-c4ccnc(OC)c4)n3)ccc2c1 [Compound 27, 5-(2-Methoxypyridin-4-yl)-3-(6-methoxyquinolin-2-yl)-1,2,4-oxadiazole]	–	–	630	–
